According to patent US6444691B1, “1,3-disubstituted ureas as ACAT inhibitors, and method of preparing thereof” (Solvakofarma, a.s., priority 1997, dated 2002):

Legend:
[1] = test system: rabbit intestinal mucosa ACAT (acylCoa:cholesterol acyltransferase); assay: In vitro inhibition of ACAT activity, rabbit intestinal mucosa microsomal fraction; assay type: biochemical; conditions: rabbit intestinal mucosa microsomes, concentration 2 μM, versus enzyme activity in 1% dimethylsulfoxide
Experimental: (§1) The biological activity of the substances was evaluated based on the in vitro inhibition of acylCoa:cholesterol acyltransferase (ACAT) activity. The enzyme was obtained from the microsomal fraction of rat liver cells and rabbit intestinal mucosa of animals fed with cholesterol. The substrates for the enzyme reaction included exogenous oleoyl co-enzyme A and endogenous cholesterol. ^14C-oleoyl co-enzyme A conversion to ^14C-cholesteryl oleate was monitored. From the mixture of extracted lipids, cholesteryl oleate was separated using thin-layer chromatography, and was quantified radiometrically. ACAT specific activity was expressed as the amount of cholesteryl oleate formed per minute per mg microsomal protein.
(§2) Efficiency was calculated as compared to enzyme activity measured in the presence of 1% dimethylsulfoxide used as the solvent to prepare solutions of the substances tested.

[2] = test system: rat liver ACAT (acylCoa:cholesterol acyltransferase); assay: In vitro inhibition of ACAT activity, rat liver microsomal fraction; assay type: biochemical; conditions: rat liver microsomes, concentration 2 μM, versus enzyme activity in 1% dimethylsulfoxide
Experimental: as §1, §2

Compound | Efficiency (%) mucosa (ACAT inhibition) [1] | Efficiency (%) liver (ACAT inhibition) [2]
O=C(Nc1ccc(F)cc1)Nc1ccc(Sc2ccc([N+](=O)[O-])cc2)cc1 [Example 26, 1-(4-Fluorophenyl)-3-((4′-nitrophenylthio)-phenyl)-urea] | 27% | 25%
O=C(Nc1ccc(Sc2ccc([N+](=O)[O-])cc2)cc1)NC12CC3CC(CC(C3)C1)C2 [Example 51, 1-(1-Adamantyl)-3-((4′-nitrophenylthio)-phenyl)-urea] | 56% | 45%
O=C(Nc1ccc(Oc2ccc([N+](=O)[O-])cc2)cc1)Nc1cc(F)ccc1F [Example 3, 1-(2,5-Difluorophenyl)-3-((4′-nitrophenoxy)-phenyl)-urea] | 58% | 49%
O=C(Nc1ccc(Sc2ccc([N+](=O)[O-])cc2)cc1)Nc1ccccn1 [Example 46, 1-(2-Pyridyl)-3-((4′-nitrophenylthio)-phenyl)-urea] | 46% | 48%
O=C(Nc1ccc(Oc2ccc([N+](=O)[O-])cc2)cc1)Nc1c(F)cccc1F [Example 4, 1-(2,6-Difluorophenyl)-3-((4′-nitrophenoxy)-phenyl)-urea] | 42% | 0%
O=C(Nc1ccc(Oc2ccc([N+](=O)[O-])cc2)cc1)Nc1ccc2ccccc2c1 [Example 22] | 12% | 0%
O=C(Nc1ccc(Oc2ccc([N+](=O)[O-])cc2)cc1)Nc1ccccc1C(F)(F)F [Example 15, 1-(2-Trifluoromethylphenyl)-3-((4′-nitrophenoxy)-phenyl)-urea] | 42% | 46%
O=C(Nc1ccc(Sc2ccc([N+](=O)[O-])cc2)cc1)Nc1cccc(Cl)c1Cl [Example 32, 1-(2,3-Dichlorophenyl)-3-((4′-nitrophenylthio)-phenyl)-urea] | 0% | 0%
O=C(Nc1ccc(Sc2ccc([N+](=O)[O-])cc2)cc1)Nc1ccc(F)cc1F [Example 27, 1-(2,4-Difluorophenyl)-3-((4′-nitrophenylthio)-phenyl)-urea] | 23% | 16%
O=C(Nc1ccc(Sc2ccc([N+](=O)[O-])cc2)cc1)Nc1cc(F)ccc1F [Example 28, 1-(2,5-Difluorophenyl)-3-((4′-nitrophenylthio)-phenyl)-urea] | 16% | 0%
O=C(Nc1ccc(Oc2ccc([N+](=O)[O-])cc2)cc1)Nc1cccc2ccccc12 [Example 21] | 22% | 14%
O=C(Nc1ccncc1)Nc1ccc(Oc2ccc([N+](=O)[O-])cc2)cc1 [Example 20] | 17% | 11%
O=C(Nc1ccc(Sc2ccc([N+](=O)[O-])cc2)cc1)Nc1cc(Cl)cc(Cl)c1 [Example 36, 1-(3,5-Dichlorophenyl)-3-((4′-nitrophenylthio)-phenyl)-urea] | 0% | 0%
O=C(Nc1ccc(Oc2ccc([N+](=O)[O-])cc2)cc1)Nc1ccc(C(F)(F)F)cc1 [Example 17, 1-(4-Trifluoromethylphenyl)-3-((4′-nitrophenoxy)-phenyl)-urea] | 18% | 25%
O=C(Nc1ccc(Sc2ccc([N+](=O)[O-])cc2)cc1)Nc1c(Cl)cccc1Cl [Example 34, 1-(2,6-Dichlorophenyl)-3-((4′-nitrophenylthio)-phenyl)-urea] | 21% | 15%
O=C(Nc1ccc(Oc2ccc([N+](=O)[O-])cc2)cc1)Nc1cccnc1 [Example 19] | 0% | 0%
1-(3-Trifluoromethylphenyl)-3-((4′-nitrophenylthio)-phenyl)-urea [Example 44] | 45% | 34%
CC(C)c1cccc(C(C)C)c1NC(=O)Nc1ccc(Sc2ccc([N+](=O)[O-])cc2)cc1 [Example 42] | 71% | 88%
O=C(Nc1ccc(Oc2ccc([N+](=O)[O-])cc2)cc1)Nc1cccc(Cl)c1Cl [Example 6, 1-(2,3-Dichlorohenyl)-3-((4′-nitrophenoxy)-phenyl)-urea] | 51% | 58%
Cc1ccccc1NC(=O)Nc1ccc(Oc2ccc([N+](=O)[O-])cc2)cc1 [Example 9] | 0% | 0%
O=C(Nc1ccc(Sc2ccc([N+](=O)[O-])cc2)cc1)Nc1ccc2ccccc2c1 [Example 50, 1-(2-Naphthyl)-3-((4′-nitrophenylthio)-phenyl)-urea] | 31% | 16%
